Format in all cases: cell-based
The subject of assay [1] is A549 cells. As to the kind of experiment: EGFP pDNA transfection, flow cytometry, A549. The settings on record: myristoleyl aldehyde, 5 μM. Here is the method:
FIG. 6 EGFP pDNA transfection efficacy with amphiphiles (myristoleyl aldehyde hydrophobic tails were used in all cases) comprising peptide 7.3(L-H) and other short peptides structurally-derived from 7.3(L-H), in A549, HeLa and HepG2 cell lines. 5 μM of amphiphile and 2 ng/μL pDNA per well were used in the transfection experiments. “LF”=Lipofectamine® 2000 commercial reagent.
For cytometry-based assays, the delivery of pDNA encoding for the expression of eGFP gene (GFP) in HeLa and A549 cells was performed. Amphiphilic molecule stock solutions in DMSO were diluted with DMEM and freshly mixed with pDNA stock solutions in DMEM prior to transfection experiments, to afford several complexes at different amphiphile concentration (2.5-10 μM) while maintaining a constant final pDNA concentration of 2 ng/μL. The mixture was shaken for 30 min at room temperature before the addition to the cells. The cell medium was aspirated, and cells were washed twice with PBS. Finally, 50 μL of the complex's solution were added to the cells and incubated for 4 h. After the incubation, the medium was replaced by 100 μL of fresh DMEM supplemented with 10% FBS. […] Finally, the GFP fluorescent measurement was performed in a flow cytometer and the percentage of GFP positive (i.e., transfected cells) were quantified. […]

Assay [2] deals with Hela cells. Kind of assay: EGFP pDNA transfection, flow cytometry, HeLa. The settings on record: myristoleyl aldehyde. Here is the method:
For cytometry-based assays, the delivery of pDNA encoding for the expression of eGFP gene (GFP) in HeLa and A549 cells was performed. Amphiphilic molecule stock solutions in DMSO were diluted with DMEM and freshly mixed with pDNA stock solutions in DMEM prior to transfection experiments, to afford several complexes at different amphiphile concentration (2.5-10 μM) while maintaining a constant final pDNA concentration of 2 ng/μL. The mixture was shaken for 30 min at room temperature before the addition to the cells. The cell medium was aspirated, and cells were washed twice with PBS. Finally, 50 μL of the complex's solution were added to the cells and incubated for 4 h. After the incubation, the medium was replaced by 100 μL of fresh DMEM supplemented with 10% FBS. 72 hours after transfection the DMEM was removed, and cells were cultured for 5 min with 100 μL of trypsin. Then, 100 μL of PBS (supplemented with 2% FBS and 1% EDTA 0.5M) were added. Finally, the GFP fluorescent measurement was performed in a flow cytometer and the percentage of GFP positive (i.e., transfected cells) were quantified. Amphiphile transfection efficiency was compared to control, non-treated cells and all experiments were done in triplicate.
7.3(Leu-His) peptide with D-amino acids was synthesized. This peptide would be more resistant to the degradation by proteases. The inventors studied the delivery of EGFP pDNA using amphiphiles comprising either enantiomer (either 7.3(Leu-His) peptide with D-amino acids or with L-amino acids) and myristoleyl aldehyde to compare their transfecting activity in HeLa cells. Number of EGFP expressing cells was measured by flow cytometry.
Experiments in cultured cells at different confluence levels were performed to check the effect of this parameter on the activity of amphiphile 7.3(Leu-His) M. As described above, transfection experiments are usually performed on cells seeded the day before at a cell concentration of 60,000 cell/mL (100 μL/well). In the current example, transfection experiments with EGFP pDNA are performed in HeLa cells two and four times more concentrated (120,000 and 240,000 cells/mL, respectively). […] However, for this experiment more volume of complex amphiphile/pDNA was needed as the cell concentration was increased (50, 100 and 200 μL of complexes were used for 60,000, 120,000 and 240,000 cells/mL, respectively).
Several structural modifications were performed on the peptide 7.3(Leu-His). The delivery of EGFP pDNA in HeLa cells using amphiphiles comprising these peptides and myristoleyl aldehyde was tested. The modifications consisted of the modification in the order of the amino acids, the replacement of 1 to 3 K* residues for O* residues and the addition of 1 or 2 R residues on the N-terminus. […]

In assay [3] the test system is HepG2 cells. As to the kind of experiment: EGFP mRNA delivery, robotic library screening, HepG2. Conditions: HepG2 cells. Here is the method:
Cells were seeded in a 96 well plate the day before the experiment at a concentration of 50,000 cell/mL (100 μL/w) in DMEM+10% FBS+1% Gln-Abt. For robotic library screening, the delivery of EGFP-mRNA (from TriLink, fully substituted with 5-methoxyuridine, capped and polyadenylated; TriLink, CleanCap® EGFP mRNA (5moU), ref. L-7201) in six different cell lines was performed. Amphiphilic molecule stock solutions were prepared in DMSO as described above and diluted in DMEM to afford a range of concentrations. The solutions of EGFP-mRNA/amphiphilic molecule complexes were freshly prepared prior to the transfection experiments. 35 μL of the corresponding amphiphile were added to 10 μL of a solution of EGFP-mRNA at 10 ng/μL in DMEM. The mixture was shaken for 30 min at room temperature before the addition to the cells. The cell medium was aspirated, and cells were washed with PBS twice. […] After the incubation, the medium was replaced by 100 μL of fresh DMEM supplemented with 10% FBS. The total EGFP fluorescence was quantified after 72 h in a well plate reader. Amphiphile transfection efficiency was compared and normalized to Lipofectamine® MessengerMax efficiency (value of 1 in Tables 1-5 and 7; double underlined numbers). All experiments were done in triplicate.
(§1) Tables 1-7: RLuc (pDNA) or EGFP (mRNA) expression levels were normalized to Lipofectamine reagents (value=1) and expressed as fold-times signal increase. In the case of siRNA, the siRNA treated cells fluorescence was compared with siMOCK control fluorescence, while Cas9-RNP mediated knockout was measured against the fluorescence of untreated cells. In both siRNA and Cas9-RNP, values are expressed as % fluorescence reduction. Amphiphile concentration was 5 μM in all cases. All experiments were performed in triplicate.
Tables 14-19 show the mean (triplicates) fluorescence intensity measured after the transfection of EGFP mRNA by different amphiphiles at different concentrations in a variety of cell lines. Background fluorescence values, accounted by untreated control cells, were subtracted for processing.

Assay [4] has as its system A549 cells. As to the kind of experiment: RLuc pDNA delivery, robotic library screening, A549. Here is the method: (§2) Cells were seeded in a 96 well plate the day before the experiment at a concentration of 60,000 cell/mL (100 μL/w) in DMEM+10% FBS+1% Gln-Abt. For robotic library screening, the delivery of pDNA encoding for the expression of Renilla luciferase gene (RLuc, pRL-CMV (Promega, #E2261)) in six different cell lines was performed. Amphihilic molecule stock solutions in DMSO were diluted with DMEM and freshly mixed with pDNA stock solutions in DMEM prior to transfection experiments, to afford several complexes at different amphiphile concentration (2-10 μM) while maintaining a constant final pDNA concentration of 2 ng/μL. The mixture was shaken for 30 min at room temperature before the addition to the cells. The cell medium was aspirated, and cells were washed twice with PBS. Finally, 50 μL of the complex's solution were added to the cells and incubated for 4 h. After the incubation, the medium was replaced by 100 μL of fresh DMEM supplemented with 10% FBS. 72 hours after transfection the DMEM was removed, cells were washed once with HBSS and 90 μL of HBSS were added to each well. Cells were incubated at 37° C. for 30 minutes. Then basal luminescence levels were read in a plate reader. Immediately, 10 μL of coelenterazine h in HBSS were added to each well (5 μM final concentration) and cells were incubated at 37° C. for 10 minutes. Finally, the total luminescence measurement of the plates was performed. Amphiphile transfection efficiency was compared and normalized to Lipofectamine® 2000 efficiency (value of 1 in Tables 1-5 and 7; bold numbers). All experiments were done in triplicate.
as §1
(§3) Tables 8-13 show the mean (triplicates) luminescent intensity (RLU) measured after the transfection of RLuc pDNA by different amphiphiles at different concentrations in a variety of cell lines. Background luminescence values, accounted by untransfected control cells, were subtracted for processing.

Another assay deals with ARPE19 cells. Kind of assay: RLuc pDNA delivery, robotic library screening, ARPE19.
The test system of another assay is HCT116 cells. Kind of assay: RLuc pDNA delivery, robotic library screening, HCT116.
In assay [5] the test system is Hela cells. As to the kind of experiment: RLuc pDNA delivery, robotic library screening, HeLa. Conditions: Hela. Here is the method:
as §2, with “Amphihilic molecule stock solutions in DMSO were diluted with DMEM and freshly mixed with pDNA stock solutions in DMEM prior to transfection experiments, to afford several complexes at different amphiphile concentration (2-10 μM) while maintaining a constant final pDNA concentration of 2 ng/μL.” left out
as §1, §3

Assay [6] deals with HepG2 cells. As to the kind of experiment: RLuc pDNA delivery, robotic library screening, HepG2. Conditions: Oleyl. Here is the method: as §2, §1, §3
In another assay the test system is Hek293 cells. Kind of assay: RLuc pDNA delivery, robotic library screening, Hek293.
[7] abbreviates: 5 μM, cell lines of FIG. 6 other than A549.

For “Ac-RHK*K*K*HR-NH2 (Ac-RHKKKHR-NH2; not fully specified (residues 3, 4, 5); printed as Ac-RHK*K*K*HR-NH2; also: linker on K* not given here) [V1-7.3(Leu-His)]”, the “EGFP pDNA transfection efficiency compared with other amphiphiles” value in the assay with A549 cells [1] is listed as “about half”. The “EGFP pDNA transfection efficiency compared with amphiphile 7.3(Leu-His) M” value in the assay on Hela cells [2] (setting [7]) is listed as “generally show the same transfection efficiency”.

Take “Ac-RK*HHK*K*R-NH2 (Ac-RKHHKKR-NH2; not fully specified (residues 2, 5, 6); printed as Ac-RK*HHK*K*R-NH2; also: linker on K* not given here) [V2-7.3(Leu-His)]”: the “EGFP pDNA transfection efficiency compared with other amphiphiles” value in the assay on A549 cells [1] was “enhanced efficiency matching V1-7.3(Leu-His) M transfection efficiency”. The “EGFP pDNA transfection efficiency as % of V1-7.3(Leu-His) M or 7.3(Leu-His) M” value with Hela cells [2] (setting [7]) is “about 50%”.

With “Ac-RK*HRK*K*H-NH2 [7.3(Leu-His) peptide with D-amino acids]”, in the assay on Hela cells [2] (HeLa, flow cytometry), the “EGFP pDNA transfecting activity, D- versus L-amino acid peptide” value is reported as “both peptides perform equally efficiently”.

On to Ac-RRK*K*RK*LRRLLRL-NH2 [13(3b)], for which the “mean fluorescence intensity after transfection of EGFP mRNA” value in the assay on HepG2 cells [3] (Palmitoleyl, 5 μM) is given as 1176; in the assay on HepG2 cells [3] (Palmitoleyl, 10 μM) it was −335; in the assay with HepG2 cells [3] (Palmitoleyl, 15 μM) it was −37; in the assay on HepG2 cells [3] (Petroselinyl, 10 μM), 189. The “mean luminescent intensity (RLuc pDNA)” value with A549 cells [4] (Dodecanal, 15 μM) stood at 2061 RLU; with A549 cells [4] (Oleyl, 5 μM), 9759 RLU; in the assay with A549 cells [4] (Oleyl, 10 μM), 1493 RLU; with A549 cells [4] (Oleyl, 15 μM), 1440 RLU; with ARPE19 cells (Dodecanal, 5 μM), 4597 RLU; in the assay on ARPE19 cells (Myristoleyl, 5 μM), 2571 RLU. Further, the “mean luminescent intensity (RLuc pDNA)” value stood at 86 RLU in the assay on ARPE19 cells (Myristoleyl, 10 μM); 64 RLU in the assay with ARPE19 cells (Myristoleyl, 15 μM); 5548 RLU with ARPE19 cells (Petroselinyl, 5 μM); 101412 RLU in the assay on HCT116 cells (Dodecanal, 5 μM); 17841 RLU in the assay with HCT116 cells (Dodecanal, 10 μM); 3435 RLU with HCT116 cells (Dodecanal, 15 μM). The “mean luminescent intensity (RLuc pDNA)” value is listed as 34451 RLU in the assay on HCT116 cells (Myristoleyl, 5 μM); 504 RLU in the assay with HCT116 cells (Myristoleyl, 15 μM); 18257 RLU in the assay on HCT116 cells (Oleyl, 5 μM); 65487 RLU with HCT116 cells (Palmitoleyl, 5 μM); 11255 RLU in the assay on HCT116 cells (Petroselinyl, 5 μM); 893 RLU in the assay with Hela cells [5] (Myristoleyl, 5 μM). Also, the “mean luminescent intensity (RLuc pDNA)” value is on record as 446 RLU with Hela cells [5] (Myristoleyl, 10 μM); 338 RLU in the assay with Hela cells [5] (Myristoleyl, 15 μM); 590 RLU with Hela cells [5] (Petroselinyl, 5 μM); 128030 RLU in the assay on HepG2 cells [6] (5 μM); 4005 RLU in the assay with HepG2 cells [6] (10 μM); −1204 RLU in the assay with HepG2 cells [6] (15 μM). Also, the “mean luminescent intensity (RLuc pDNA)” value in the assay with Hek293 cells (Dodecanal, 5 μM) amounted to 233706 RLU; with Hek293 cells (Palmitoleyl, 5 μM) it was 97665 RLU; with Hek293 cells (Palmitoleyl, 10 μM) it was 33115 RLU; with Hek293 cells (Petroselinyl, 5 μM), 100988 RLU; with Hek293 cells (Petroselinyl, 10 μM) it was 48097 RLU.

The values above are taken from US20250304623A1, “PEPTIDES FOR INTRACELLULAR DELIVERY” (UNIVERSIDADE DE SANTIAGO DE COMPOSTELA, priority 2022, published 2025).
